Reference: patent EP4417607A1, “HETEROCYCLIC COMPOUND AS SOS1 INHIBITOR AND USES THEREOF” (Nanjing Zaiming Pharmaceutical Co., Ltd., priority 2021, dated 2023)

What was measured:
[1] = tested on: DLD-1 cell subcutaneous tumor model; experiment: Growth inhibition in DLD-1 cell subcutaneous tumor model; format: in vivo, NU/NU mice; conditions: for TGI(%): 15 mg/kg, PO, BID, DLD-1 subcutaneous tumor, NU/NU mice
Excerpt: • Human colorectal cancer DLD-1 cell: ATCC, CCL-221 • RPMI-1640 culture medium: Gibco, REF: 61870-036 • Fetal bovine serum: Gibco, REF: 10091-148 • 0.25% trypsin-EDTA: Gibco, REF: 25200-072 • D-PBS (phosphate-buffered saline without calcium and magnesium ions): Hyclone, Cat. No.: SH30256.01 • Matrigel: Corning, Cat. No.: 356237
• Animal information: NU/NU mice, female, aged 6-7 weeks, 24-30 g, purchased from Beijing Vital River Biotechnology Co., Ltd. • Cell culture: human colon cancer cell strain DLD-1 was cultured in vitro under the conditions of RPMI-1640 (cell culture medium) added with 10% fetal bovine serum and 1% Pen Strep (Gibco penicillin-streptomycin diabody), and an incubator at 37 °C with 5% CO2. The cells were digested with a 0.25% trypsin-EDTA digestive solution twice a week for passaging as per conventional practice. When cell confluence was 80%-90% and a required amount was achieved, the cells were collected and counted. Cell inoculation: 0.1 mL/(containing 5×10^6) DLD-1 cell suspension (RPMI-1640: Matrigel, volume ratio 1: 1) was inoculated subcutaneously into the right lumbar dorsal part of each mouse. On day 6 after inoculation of the cells, the mice were randomly grouped and administrated based on tumor volume. The day when random grouping was performed was day 0.
Tumor diameters were measured twice weekly using a vernier caliper. The tumor volume was calculated using the following formula: V = 0.5a × b^2, where a and b represent the long diameter and short diameter of the tumor, respectively. Mouse body weight was measured twice weekly.
The anti-tumor therapeutic effect of the compound was evaluated by tumor growth inhibition rate TGI (%). TGI (%) = [(1 - (average tumor volume at the end of administration in a treatment group - average tumor volume at the start of administration of the treatment group)) / (average tumor volume at the end of treatment of the solvent control group - average tumor volume at the start of treatment of the solvent control group)] × 100%.

[2] = Caco-2 membrane permeability and transport; format: in vitro ADME; conditions: human, pH 7.4; for Papp A→B at 2 h, 10 µM: Caco-2, apical to basal; for Papp B→A at 2 h, 10 µM: Caco-2, basal to apical
Procedure: The membrane permeability and transport properties of the compound of the present disclosure were determined using the following method. • I. Experimental materials and instruments • 1. Caco-2 cells (ATCC) • 2. HEPES (Solarbio 804D049), penicillin/streptomycin (Solarbio 20200109), Trypsin/EDTA (Solarbio), and PBS (Solarbio 20200620) • 3. Fetal Bovine Serum (FBS) (Sigma WXBD0055V), lucifer yellow (Sigma MKCJ3738), and NaHCO3 (Sigma SLBZ4647) • 4. Hank's balanced salt solution (Gibco 2085528), non-essential amino acid (NEAA) (Gibco 2211548), and Trypsin/EDTA (Gibco 2120732) • 5. High glucose DMEM (Corning 20319014) • 6. HTS Transwell-96 Well Permeable (Corning, 3391) • 7. Resistance detector (Millipore, Millicell® ERS-2) • 8. Cellometer® Vision (Nexcelom Bioscience) • 9. Infinite 200 PRO microplate reader (Tecan, Infinite M200PRO) • 10. Positive control compound metoprolol (Sinopharm 100084-201403), erythromycin (MCE 84550), and cimetidine (Sinopharm 100158-201406) • 11. ABI QTrap 5500 liquid chromatography-mass spectrometry system • II. Procedures • 1. Caco-2 cell culture • 1) Preparation of transport buffer (HBSS containing 25 mM HEPES, pH 7.4): 5.958 g HEPES and 0.35 g NaHCOs were accurately weighed and dissolved in 900 mL pure water. 100 mL of 10× HBSS was then added and stirred well. The pH was adjusted to 7.4, and the mixture was filtered. • 2) Preparation of Caco-2 cell culture medium: FBS, penicillin, streptomycin, kanamycin, and NEAA were added to a high glucose DMEM (containing L-glutamine) culture medium to prepare a cell culture medium containing 10% FBS, 0.1 mg/mL streptomycin, 100 units penicillin, 0.6 µg/mL kanamycin, and 1× NEAA. • 3) Cells were cultured with a T-75 flask at 37 °C with 5% CO2 in an incubator. The culture medium was discarded when cell density reached 80-90%. The cells were rinsed with 5 mL PBS. 1.5 mL Trypsin/EDTA was added. The mixture was incubated at 37 °C for 5-10 min in an incubator until the cells shed like quicksand. Finally the Trypsin/EDTA was neutralized with a FBS-containing culture medium. • 4) The cell suspension was centrifuged at 120 × g for 10 min, and the supernatant was discarded. • 5) The cells were resuspended in a cell culture medium. The cell suspension was adjusted to a density of 6.86 × 10^5 cells/mL. • 2. Caco-2 cell inoculation • 1) 50 µL of culture medium was added to the Transwell chamber per well. 25 mL of culture medium was added to the lower chamber, and the chamber was preheated at 37 °C for 1 h with 5% CO2 in an incubator. • 2) 50 µL of the cell suspension was added to the preheated Transwell chamber per well at a final density of 2.4 × 10^5 cells/cm^2 • 3) The cells were cultured for 14-18 days. The culture medium was replaced every other day, and the culture medium was replaced within 48 h after the initial inoculation. The culture medium had to be replaced the day before the experiment. • 3. Evaluation of integrity of monolayer cell membrane • 1) The cells fused and differentiated after 14 days of culture and were ready for a transport experiment. • 2) The resistance of the monolayer membrane was measured using a resistance detector. […] Transport experiment • 1) A 10 mM stock solution of the compound of the present disclosure or the positive control compound was diluted with DMSO to give a 2 mM stock solution. The 2 mM stock solution was then diluted with the transport buffer to give a 10 µM working solution of the compound of the present disclosure or the positive control compound. • 2) The Caco-2 cell plate was taken out from the incubator, washed twice with the pre-heated transport buffer, and incubated at 37 °C in an incubator for 30 min. • 3) To determine the transport rate of the compound from the apical end to the basal end (A → B), 108 µL of the working solution of the compound was added to the Transwell chamber (apical end), while 8 µL of the sample was immediately taken from the apical end to 72 µL of the transport buffer. […]

Compound | TGI(%) [1] [%] | efflux ratio ([2]; Caco-2, Papp (B-A)/Papp (A-B)) | Papp A→B at 2 h, 10 µM [2] [×10⁻⁶ cm/s] | Papp B→A at 2 h, 10 µM [2] [×10⁻⁶ cm/s] | inhibitory effect on tumor growth ([1]; 15 mg/kg orally twice a day, P < 0.0001) | efflux ratio at 2 h, 10 µM ([2]; Caco-2, Papp (B-A)/Papp (A-B))
[2H][C@](C)(Nc1nc(C)nc2c(N3CCOCC3)c(=O)n(C3(CF)CC3)cc12)c1cccc(C(F)F)c1F [Example 55, (R)-4-((1-(3-(difluoromethyl)-2-fluorophenyl)ethyl-1-d)amino)-6-(1-(fluoromethyl)cyclopropyl)-2-methyl-8-morpholinylpyrido[4,3-d]pyrimidine-7(6H)-one] | 65.4 | 4.77 | 5.09 | 24.3 |  | 
Cc1nc(N[C@H](C)c2cccc(C(F)F)c2F)c2cn(C3(CF)CC3)c(=O)c(N3CCOC[C@@H]3C)c2n1 [Example 40, 4-(((R)-1-(3-(difluoromethyl)-2-fluorophenyl)ethyl)amino)-6-(1-(fluoromethyl)cyclopropyl)-2-methyl-8-((S)-3-methylmorpholine)pyrido[4,3-d]pyrimidine-7(6H)-one] | 59.0 |  | 2.1 | 27.6 | significant inhibitory effect on tumor growth | 13.1
